Consider four compounds from patent US12342842B2, “Preparation for use in enhancing formation of short-chain fatty acids (SCFAs)” (Evonik Operations GmbH, priority 2019, dated 2025).

The subject of experiment [1] is human colonic microbiota. Put plainly: I-screen fermentation, SCFA analysis with omega-3 amino acid salts, FFA and amino acids (Examples 5 and 6). It counts as cell-based. The following applies: salts 1.4 mg/ml; for Iso-butyrate / Iso-valerate: 24 h in SIEM, FFA 0.95 mg/ml, amino acids 0.5 mg/ml, means of triplicates; for Iso-butyrate: control 1.21; for Iso-valerate: control 2.74; for Propionate/acetate ratio / Propionate / Acetate: FFA 0.96 mg/ml, L-lysine 0.49, L-arginine 0.52, L-ornithine 0.5 mg/ml; for Propionate/acetate ratio: control 0.48; for Propionate: control 7.37; for Acetate: control 15.21.

Experiment [2] has as its system human colonic microbiota. Put plainly: I-screen intestinal screening model, microbiota composition by V4 16S rRNA gene sequencing (Example 1). It counts as cell-based. As to conditions: omega-3-lys, EE, fish oil 1.4 mg/ml, inulin 4 mg/ml, means of triplicates. The source says: To determine the effect of omega-3 compounds on adult colonic microbiota, an intestinal screening model was used (I-screen, TNO, the Netherlands), which corresponds to colonic environment. A translation of such in vitro experiment towards an application in a living organism (animal or human) requires the use of a colon-specific delivery form to circumvent absorption of fatty acids in upper parts of the gastrointestinal tract. The use of compositions comprising omega-3 compounds in formulations enabling a colon-specific delivery is part of the present invention. […]
The microbiota composition was analyzed by 16S rRNA gene amplicon sequencing of the V4 hypervariable region. […]
The amount of bacterial DNA in the i-screen DNA samples was determined by quantitative polymerase chain reaction (qPCR) using primers specific for the bacterial 16S rRNA gene: Forward primer: CGAAAGCGTGGGGAGCAAA; Reverse primer: GTTCGTACTCCCCAGGCGG; Probe: 6FAM-[…]-MGB.
Subsequently, PCR amplicons of the V4 hypervariable region of the 16S rRNA gene were generated for the individual samples by amplification of 500 pg of DNA as described by Kozich et al. (2013), using F515/R806 primers (Caporaso et al. 2011). […] The amount of amplified DNA per sample was quantified using the dsDNA 910 Reagent Kit on the Fragment Analyzer (Advanced Analytical). […]

Consider `N=C(N)NCCC[C@H](N)C(=O)O` [Arg, L-arginine], for which, in experiment [1], the “Iso-butyrate” value was found to be 1.21 mM, the “Iso-valerate” value stood at 3.71 mM, the Propionate/acetate ratio worked out at 0.40 and the “Propionate” value is recorded as 9.39 mM. In addition, in experiment [1], the “Acetate” value is recorded as 23.50 mM.
For `NCCCC[C@H](N)C(=O)O` [Lys, L-lysine] the same measures were 1.47 mM, 3.57 mM, 0.40, 9.49 mM and 24.03 mM.
For `NCCC[C@H](N)C(=O)O` [Orn, L-ornithine] the same measures were 1.37 mM, 3.31 mM, 0.36, 9.11 mM and 25.36 mM.
As to inulin, the “Effect on colonic microbiota after 24 h incubation (variance explained versus control)” value in experiment [2] was 40.2%.
